# Reference: US20110118269A1, “FUSED PYRAZINE COMPOUNDS AS THEIR SALTS, USEFUL FOR THE TREATMENT OF DEGENERATIVE AND INFLAMMATORY DISEASES” (priority 2009, published 2011)
# Experiments:
# MMP1 expression by SFs = test: MMP assay proof of principle: MMP1 produced by complex trigger activated SFs; type: cell-based; settings: 48 hrs, read-out: IC50, reduction of MMP1 expression by SFs
# Procedure: A 384-well format ELISA for measurement of MMP1 is developed. Various primary antibodies are tested, as well as various ELISA protocols. The following protocol is developed and validated to measure MMP1 levels in SF supernatant in 384 well plates: white Lumitrac 600 384 well plates (Greiner) are coated with 2 μg/mL anti-MMP1 antibody MAB1346 (Chemicon). The antibody is diluted in buffer 40 (1.21 g Tris base (Sigma), 0.58 g NaCl (Calbiochem) and 5 mL 10% NaN3 (Sigma) in 1 L milliQ water and adjusted to pH 8.5). After overnight incubation at 4° C., plates are washed with PBS (80 g NaCl, 2g KCl (Sigma), 11.5 g Na2HPO4.7H2O and 2 g KH2PO4 in 10 L milliQ; pH 7.4) and blocked with 100 μL/well Casein buffer (2% Casein (VWR International) in PBS). Next day, casein buffer is removed from ELISA plates and replaced by 50 μL/well EC buffer (4 g casein, 2.13 g Na2HPO4 (Sigma), 2 g bovine albumin (Sigma), 0.69 g NaH2PO4.H2O (Sigma), 0.5 g CHAPS (Roche), 23.3 g NaCl, 4 mL 0.5 M EDTA pH 8 (Invitrogen), 5 mL 10% NaN3 in 1 L milliQ and adjusted to pH 7.0). 0.25 mM DTT (Sigma) is added to the thawed samples plates. After removal of the EC buffer, 20 μL of sample is transferred to the ELISA plates. […] Readout is performed on the Luminoscan Ascent Luminometer (Labsystems) with an integration time of 200 msec or with an Envision reader (Perkin Elmer). […]
# [1] = after 24 months treatment; cited from earlier work
Compound,IC50 (MMP1 expression by SFs) [nM],patients achieving an ACR50 score [1] [%]
C[C@@H]1C[C@H]2[C@@H]3CCC4=CC(=O)C=C[C@]4(C)[C@@]3(F)[C@@H](O)C[C@]2(C)[C@@]1(O)C(=O)CO [dexamethasone],~1,
CN(Cc1cnc2nc(N)nc(N)c2n1)c1ccc(C(=O)N[C@@H](CCC(=O)O)C(=O)O)cc1 [methotrexate],,30
